Each structure is given as a SMILES string. “Also recorded” adds a separate entry of the source. Like-named read-outs stand apart in the source and are kept apart here.

The values below come from article PMC4604408, “Targeting the Parasite's DNA with Methyltriazenyl Purine Analogs Is a Safe, Selective, and Efficacious Antitrypanosomal Strategy” (Antimicrobial Agents and Chemotherapy, 2015).

The subject of one data set is Tbb msh2+/+. As to the kind of experiment: microbe, parasite or virus in culture. Type of data set: cell-based, Trypanosoma brucei. The note with it: Trypanosoma brucei, read-out: Tbb msh2+/+ (EC50; µM) AVG.
Data set [1] deals with T. brucei brucei (STIB 795). The experiment in a line: mouse model of acute trypanosomiasis. Type of data set: in vivo. To be noted: female NMRI mice, 50 mg/kg i.p. daily for 4 days from day 3 postinfection.
In data set [2] the test system is bloodstream-form T. brucei. The experiment in a line: potency in Creek's minimal medium with inosine or hypoxanthine as purine source. Type of data set: cell-based.
Data set [3] has as its system BF T. brucei. The experiment in a line: DNA content by propidium iodide staining and flow cytometry. To be noted: 15 μM, 24 h. Type of data set: cell-based. In general terms: A flow cytometer gives signals particle by particle.
The subject of data set [4] is His– S. typhimurium strains TA98 and TAMix. As to the kind of experiment: Ames II mutagenicity assay. The format is cell-based, Salmonella typhimurium. To be noted: before (–S9) and after (+S9) metabolic activation, 62.5 µM to 2 mM. A general note: In the Ames test, an excess of revertant colonies over the control signals mutagenicity.
The test system of data set [5] is T. brucei brucei 427 tbat1^−/−. As to the kind of experiment: microbe, parasite or virus in culture. Type of data set: cell-based. To be noted: Trypanosoma brucei, read-out: In vitro activity (EC50) T. brucei brucei 427 tbat1^−/−.
The next data set deals with BF T. brucei brucei. As to the kind of experiment: TUNEL assay for DNA strand breaks in trypanosomes. Type of data set: cell-based. The note with it: 3 μM, 24 h.
Data set [6] is classed as in vivo. To be noted: up to 10 × 50 mg/kg i.p. daily.
In the next data set the test system is Tbb msh2-/-. As to the kind of experiment: microbe, parasite or virus in culture. The format is cell-based, Trypanosoma brucei. To be noted: for EC50: Trypanosoma brucei, read-out: Tbb msh2-/- (EC50; µM) AVG.
Data set [7] relates to BF T. brucei. As to the kind of experiment: growth curves of treated bloodstream-form trypanosomes. The format is cell-based. To be noted: 15 µM for 72 h in Fig. S7. As to the method: Given its promising antiparasitic efficacy in vitro and in vivo, we selected lead compound 1 for further antitrypanosomal mechanism-of-action studies. […] We analyzed the DNA content of these cells over 24 h by flow cytometry (Fig. 3B; see also Fig. S7 in the supplemental material). After 4 h of exposure to 15 μM compound 1, we observed a decrease in the proportion of cells with normal diploid (2C) DNA content, whereas an aberrant population of cells started to appear with a DNA content between 2C and 4C. […] We also monitored the karyotype distribution of BF T. brucei over time (see Fig. S8 in the supplemental material), using DAPI staining to visualize nuclei (N) and kinetoplasts (K). Within the first 8 h (the normal time to complete one cell cycle) of exposure to compound 1, we observed a significant increase in 1N2K cells, with a coincident decrease in 1N1K and 2N2K. […]
FIG 3 Methyltriazenyl purines cause cell cycle arrest in the G2/M phase in T. brucei. […] (b) DNA content of BF T. brucei in the presence or absence of 15 μM compound 1, as determined by propidium iodide staining of fixed cells and measured by fluorescence-activated cell sorting (FACS). […]
Figure S7. […] B) Long term growth curve of bloodstream form T.b. brucei s427 cultures (seeded at 5 × 10^5 cells/mL) exposed to 15 µM of 1 (closed squares) or vehicle only (open circles) monitored for 72 hours. […]

Data set [8] in a line: spontaneous triazene hydrolysis by UV spectroscopy. The note with it: 50 µM in PBS at 37 °C, physiological conditions, n=2.
Data set [9] has as its system freshly isolated rat hepatocytes. The experiment in a line: hepatotoxicity on freshly isolated rat hepatocytes. The note with it: 100 µM, up to 120 min. The format is cell-based. As to the method: page 11: Figure S3 A B C 125 125 125 100 100 100 75 75 75 50 50 50 25 Contr ol 25 Contr ol 25 Contr ol 0 + NA1371 0 +NA1371 0 +NA1371 0 30 60 90 120 0 30 60 90 120 0 30 60 90 120 […] ) Figure S3. […] (A) Hepatocytes from male Sprague-Dawley rats were isolated as described (4, 5) and hepatotoxicity assays were performed as described (6). […] or left untreated. Cell viability was determined by a Trypan blue exclusion test. Values are normalized to t=0 min (%). (B) The reduced glutathione (GSH) content of hepatocytes was determined by an O-phthaldehyde fluorimetric test. […] (C) The total protein content of hepatocytes was determined by a Lowry assay. […]

In data set [10] the test system is T. brucei brucei WT (strain 427). As to the kind of experiment: microbe, parasite or virus in culture. Type of data set: cell-based. The note with it: for EC50: Trypanosoma brucei, read-out: In vitro activity (EC50) T. brucei brucei WT.
Data set [11] addresses T. brucei H2 (hypoxanthine transporter 2 of T. brucei brucei). The format is cell-based. To be noted: read-out: Transport (Ki value) T. brucei H2.
Data set [12] has as its system HEK293 (human embryonic kidney 293T cells). As to the kind of experiment: cells. To be noted: read-out: In vitro activity (EC50) HEK293.
In data set [13] the test system is T. brucei rhodesiense (STIB 900). As to the kind of experiment: stringent mouse model of trypanosomiasis. Type of data set: in vivo. To be noted: female NMRI mice, 50 mg/kg i.p. for four consecutive days from day 3 postinfection. As to the method: The experiments were performed essentially as described previously ([26]). Female NMRI mice were infected intraperitoneally (i.p.) with 10^4 bloodstream-form T. brucei brucei (strain STIB 795) or 3 × 10^3 T. brucei rhodesiense (strain STIB 900). Experimental groups of four mice were treated i.p. with test drug daily on four consecutive days starting from day 3 postinfection. A control group was infected but remained untreated. The tail blood of each mouse was checked for parasitemia up to 60 days postinfection; mice were culled when parasitemia was >10^8 trypanosomes/ml of blood. Surviving and aparasitemic mice at day 60 were considered cured and were euthanized. All protocols and procedures used in this study were reviewed and approved by the local veterinary authorities of the Canton Basel-Stadt, Switzerland.
Figure S4. Methyltriazenyl purine 1 has a high cure rate in acute T. b. rhodesiense infection in vivo. Kaplan–Meier survival plot for female NMRI mice (n = 4 per group) after infection with T. b. rhodesiense (STIB900) (inoculum 3×10^3 parasites). Intraperitoneal injection with 1 dissolved in DMSO started 3 days after infection at a single dose of 50 mg/kg

A further data set concerns Tbb msh2+/-. As to the kind of experiment: microbe, parasite or virus in culture. To be noted: Trypanosoma brucei, read-out: Tbb msh2+/- (EC50; µM) AVG. The format is cell-based, Trypanosoma brucei.
The test system of data set [14] is HEK293 (human embryonic kidney 293T cells).

In the case of `CC(=O)N(C)N=Nc1nc(O)c2[nH]cnc2n1` [Compound 1, 2-(3-acetyl-3-methyltriazen-1-yl)-6-hydroxypurine], the EC50 was 0.87 µM with Tbb msh2+/+; 0.52 ± 0.08 µM in data set [5]; 3.9 µM in the data set on Tbb msh2-/-; 0.42 ± 0.05 µM in [10]; greater than 250 µM in data set [12]; 1.5 µM in the data set on Tbb msh2+/-. Moreover, the cure rate in [1] is 100%; in data set [13], 75%. Also, in data set [1], the “survival of treated mice” value is recorded as greater than 60 days. Moreover, the “sensitivity (EC50) in medium with inosine compared to hypoxanthine as purine source” value in data set [2] is given as “higher”. For the same compound, the “DNA content of treated cells” value in the data set with BF T. brucei [3] was “majority of cells having an apparent 4C DNA content”. In addition, in data set [4], the “mutagenic activity in Ames II test” value is reported as “negative (not mutagenic); also recorded: did not reveal any mutagenic activity”. In the data set on BF T. brucei brucei, the “increase in BrdU incorporation (DNA strand breaks)” value is 2 fold. In addition, the tolerability entry in data set [6] was “well tolerated”. Also, the “potency against cells with impaired or lost MSH2 activity” value in the data set with Tbb msh2-/- is “reduced potency”. In addition, the “effect on culture proliferation” value with BF T. brucei [7] is “Cell growth is arrested and the cells eventually die; also recorded: arrested in its proliferation”. The hydrolysis half-life in data set [8] is roughly 6.8 h. This compound showed a half-life at 50 µM in [8] (PBS, hydrolysis half-life) of 6.8 ± 0.4 h. Further, the “hepatotoxic effects, hepatocyte viability (Trypan blue exclusion)” value in [9] is “does not show toxic effects; also recorded: no hepatotoxic effects”. Also, in data set [9], the “total protein content of hepatocytes (Lowry assay)” value was “No protein loss”. In data set [10], the “antitrypanosomal potency against BF T. brucei in vitro (in words)” value is listed as “submicromolar”. For the same compound, the “SI, in vitro selectivity index” value in data set [10] (EC50(HEK)/EC50(T. brucei brucei WT)) is greater than 595. Besides, in data set [11], the Ki was 0.59 ± 0.15 µM.
`O=C(NN=Nc1nc(O)c2[nH]cnc2n1)Oc1ccccc1` [Compound 5]: the EC50 in the data set on Tbb msh2+/+ is 192 µM; in [5] it was greater than 100 µM; in the data set with Tbb msh2-/-, 168 µM; in [10], greater than 100 µM; in data set [12] it was greater than 250 µM; with Tbb msh2+/-, 166 µM. Moreover, in data set [14], the “toxicity to HEK293T cells (in words)” value was “did not show any toxic effects”. The “antitrypanosomal potency against BF T. brucei in vitro (in words)” value in [10] was “did not show any toxic effects”. In addition, the Ki in data set [11] (inhibition of 0.05 μM [3H]hypoxanthine uptake, 60 s, mean ± SEM, n ≥ 3) worked out at 0.09 ± 0.02 µM.

What is called half-life is how long it takes for the measured level to halve. One may read the Ki as the equilibrium dissociation constant of an inhibitor or competing ligand from its target.
